Measurements published in the NIST ThermoML archive (doi:10.1021/je300487n).

What was measured:
[1] = for viscosity / mass density: 101.33 kPa, Liquid; for viscosity: Concentric cylinders viscometry; for mass density: Vibrating tube method; for surface tension liquid-gas: Drop volume
[2] = refractive index (Na D-line) (dimensionless); conditions: 101.33 kPa, Liquid, Standard Abbe refractometry

CC(=O)[O-].CCCC[N+]1(C)CCCC1 [1-butyl-1-methylpyrrolidinium acetate]
Conditions	mass density, [1] [kg/m3]	refractive index, [2]	surface tension liquid-gas, [1] [mN/m]	viscosity, [1] [mPa·s]
283.15 K	–	1.47263	–	–
288.15 K	–	1.47144	–	–
293.15 K	–	1.47075	–	–
298.15 K	1021.2	1.46998	–	106.63
298.3 K	–	–	37.4	–
303.15 K	1018.1	1.46868	–	79.92
307.9 K	–	–	36.8	–
308.15 K	1015.1	1.46736	–	61.34
313.15 K	1012.1	1.46603	–	48.45
318 K	–	–	36.4	–
318.15 K	1009.2	1.46461	–	38.34
323.15 K	1006.2	1.4632	–	31.1
328.15 K	1003.3	1.46178	–	25.61
328.4 K	–	–	36.1	–
333.15 K	1000.4	1.46042	–	21.64
338.15 K	997.8	1.459	–	18.05
338.5 K	–	–	35.6	–
343.15 K	994.9	1.45755	–	15.42
343.6 K	–	–	34.4	–
348.15 K	992	1.45619	–	13.3
353.15 K	989.2	1.45479	–	11.84
358.15 K	986.3	–	–	10.16
363.15 K	983.5	–	–	8.983

CC(=O)[O-].CCCCn1cc[n+](C)c1 [1-butyl-3-methylimidazolium acetate]
Conditions	mass density, [1] [kg/m3]	refractive index, [2]	surface tension liquid-gas, [1] [mN/m]	viscosity, [1] [mPa·s]
283.15 K	1062.2	1.49269	–	1037.2
288.15 K	1058.9	1.49158	–	658.84
293.15 K	1055.5	1.49021	–	429.11
298 K	–	–	36.4	–
298.15 K	1052.3	1.4889	–	297.39
303.15 K	1049.2	1.48725	–	209.65
307.8 K	–	–	35.9	–
308.15 K	1046.1	1.4858	–	152.07
313.15 K	1043	1.48438	–	112.23
318 K	–	–	35.5	–
318.15 K	1040	1.48297	–	86.07
323.15 K	1037	1.4806	–	66.82
328.15 K	1034	1.47915	–	52.84
328.6 K	–	–	35.1	–
333.15 K	1031	1.4777	–	42.67
338.15 K	1028	1.47624	–	34.66
339 K	–	–	34.7	–
343.15 K	1025	1.47463	–	28.69
348.15 K	1022.1	1.47318	–	24.04
353.15 K	1019.1	1.4718	–	20.76
358.15 K	1016.2	–	–	17.45
363.15 K	1013.3	–	–	15.08

CC(=O)[O-].CCn1cc[nH+]c1 [1-ethyl-1H-imidazolium acetate]
Conditions	mass density, [1] [kg/m3]	refractive index, [2]	surface tension liquid-gas, [1] [mN/m]	viscosity, [1] [mPa·s]
283.15 K	1047.2	1.46347	–	7.88
288.15 K	1042.9	1.4616	–	6.669
293.15 K	1038.5	1.45966	–	5.291
298.1 K	–	–	37.8	–
298.15 K	1034.2	1.45769	–	4.955
303.15 K	1029.9	1.45576	–	4.337
307.8 K	–	–	36.7	–
308.15 K	1025.6	1.45379	–	3.828
313.15 K	1021.3	1.45185	–	3.225
318.15 K	1017	1.44985	–	3.051
318.5 K	–	–	36.1	–
323.15 K	1012.7	1.44791	–	2.75
328.15 K	1008.4	1.44593	–	2.492
328.3 K	–	–	35	–
333.15 K	1004.1	1.44395	–	2.171
338.15 K	999.8	1.44197	–	2.078
339.9 K	–	–	33.7	–
343.15 K	995.8	1.44	–	1.91
344.2 K	–	–	33.3	–
348.15 K	991.5	1.438	–	1.762
353.15 K	987.2	1.43607	–	1.547
358.15 K	982.8	–	–	1.515
363.15 K	978.5	–	–	1.412

CC(=O)[O-].CCn1cc[n+](C)c1 [1-ethyl-3-methylimidazolium acetate]
[2]
Conditions	refractive index
283.15 K	1.50402
288.15 K	1.50267
293.15 K	1.50129
298.15 K	1.49992
303.15 K	1.49854
308.15 K	1.49718
313.15 K	1.49581
318.15 K	1.49447
323.15 K	1.49307
328.15 K	1.49171
333.15 K	1.49035
338.15 K	1.48899
343.15 K	1.48756
348.15 K	1.48613
353.15 K	1.48476

CC(=O)O.CCN(C)C [N,N-dimethylethanamine acetate]
Conditions	mass density, [1] [kg/m3]	refractive index, [2]	surface tension liquid-gas, [1] [mN/m]	viscosity, [1] [mPa·s]
283.15 K	1028	1.42303	–	26.22
288.15 K	1024	1.42143	–	20.89
293.15 K	1020.1	1.41983	–	16.36
298.15 K	1016.1	1.41819	–	13.97
298.2 K	–	–	33.5	–
303.15 K	1012.2	1.41655	–	11.68
308.1 K	–	–	32.7	–
308.15 K	1008.3	1.41492	–	9.888
313.15 K	1004.4	1.41328	–	8.275
318 K	–	–	32.1	–
318.15 K	1000.5	1.41156	–	7.316
323.15 K	996.8	1.40991	–	6.381
328.15 K	992.9	1.4082	–	5.611
328.4 K	–	–	31.3	–
333.15 K	989	1.40649	–	4.869
338.15 K	985	1.40476	–	4.427
338.2 K	–	–	30.5	–
343.15 K	981.1	1.40312	–	3.97
348.15 K	977.2	1.40138	–	3.578
353.15 K	973.1	1.39963	–	3.132
358.15 K	969.1	–	–	2.943
363.15 K	965.1	–	–	2.691
